Tests used:
[1] = Randomized, placebo-controlled pilot study of IV 25OHD supplementation in critically ill (ICU) patients; serum vitamin D metabolites and DBP (Example 1); assay type: in vivo
Procedure: The study was performed in accordance with the 1964 Declaration of Helsinki and its later amendments. The protocol and consent forms were approved by the institutional review board of the University Hospitals Leuven (ML2462). The study was registered at www.controlled-trials.com (ISRCTN24385496). Patients with an anticipated stay in the intensive care unit (ICU) of more than 10 days were eligible for inclusion in the study. Patients younger than 18 years, those suffering from chronic bone or kidney disease, and those who were treated with glucocorticoids before ICU admission were excluded. Patients were compared with healthy controls matched for age, gender and body mass index, of whom blood was sampled during summer time.
Upon ICU admission, patients were randomly allocated to either a daily IV injection of placebo (NaCl 0.9%) or to an IV loading dose of 200 µg 25OHD, followed by an IV replacement dose of 15 µg 25OHD per day, from ICU admission onward and continued for 10 days. Patients from both groups also received the usual vitamin D supplement, which consisted of a daily intravenous cholecalciferol supplement of +/-200 IU (5 µg, as part of 10 ml of Cernevit® (Clinitec-Baxter, Brussels, Belgium). 25OHD was obtained from Solvay Pharmaceuticals (Brussels, Belgium) and dissolved in ethanol by the hospital pharmacy under laminar flow conditions in glass vials, containing 200 µg/ml per vial for the loading dose and 15 µg/ml per vial for the replacement dose. A purity control was performed on the prepared samples using HPLC. Similarly, placebo vials were also prepared by the hospital pharmacy (1 ml NaCl 0.9% per vial). All vials were blinded by the hospital pharmacy.
The effect of IV 25OHD supplementation on vitamin D status (25OHD, 1,25(OH)2D, 24,25(OH)2D) was studied. Clinical outcome parameters (organ dysfunction (sequential organ failure assessment (SOFA) score, days on mechanical ventilation, need for renal replacement therapy), prolonged (>3 days) antibiotic therapy, ICU length of stay and mortality) were registered as safety endpoints. All patients were followed up and monitored for possible adverse events beyond the intervention period of 10 days until discharge or death. Analysts and investigators were blinded for treatment allocation.
Every day at 06.00 a.m., from ICU admission until ICU discharge or death, undiluted blood samples were taken through an arterial line that had been placed for clinical purposes. Serum and plasma samples were frozen and subsequently stored at -20°C until assay. Concentrations of 25OHD, 1,25(OH)2D, and 24,25(OH)2D were measured in serum.
25OHD was measured by competitive binding assay; 1,25(OH)2D by radioimmunoassay (RIA), and DBP by radial immunodiffusion, as previously reported by Bouillon et al (J Clin Invest 1981 67 589-596). A subset of the original 25OHD measurements were subsequently validated by re-analyses using LC-MS/MS, currently considered the gold standard. To this end, 58 samples from patients (treated with 25OHD or placebo) and controls were selected at random covering the full range of 25OHD serum concentrations (3.7-70.7 ng/ml). Briefly, serum proteins were precipitated using zinc sulphate solution, spiked with d6-25OHD3 as internal standard. After mixing and centrifugation, the supernatant was transferred to the liquid chromatography autosampler. We used a ScieX 5500 QTRAP mass spectrometer connected with a Shimadzu chromatographic system. The method consisted of an online clean-up step using a Strata C8 extraction cartridge. After loading and cleaning, the analytes were eluted by back-flushing. A Kinetex F5 column was used as analytical column. Atmospheric-pressure chemical ionization (APCI) positive mode was used. Mass transitions of 383>211, 295>211 and 389>211 were used for 25OHD3, 25OHD2 and the internal standard, respectively. Within-run and between-run CVs at clinically relevant concentrations varied between 6.3-7.4% and 6.9-8.8% respectively. […]

[2] = cited from earlier work
[3] = normal subjects; cited from earlier work
[4] = Further trial of IV 25OHD with higher replacement dose in critically ill patients (Example 2); assay type: in vivo; settings: IV loading dose, then 25 µg 25OHD per day for 10 days
Procedure: The study design and materials are similar to the one described in Example 1, the difference being that the patients are administered higher bolus and daily replacement doses of 25OHD for at least two days after the bolus administration and preferably during the hospital stay of such patients .
The study is performed in accordance with the 1964 Declaration of Helsinki and its later amendments. Patients with an anticipated stay in the intensive care unit (ICU) of more than 10 days are considered eligible for inclusion in the study. […]
The effect of IV 25OHD supplementation on vitamin D status (25OHD) is studied. […] All patients are followed up and monitored for possible adverse events beyond the intervention period of 10 days until discharge or death. […]
Every day at 06.00 a.m., from ICU admission until ICU discharge or death, undiluted blood samples are taken through an arterial line that is present for clinical purposes. […] Concentrations of 25OHD are measured in serum.
StatView 5.0.1 (SAS Institute Inc., Cary, NC) and JMP13 (SAS) is used for the statistical analyses. […] Variables with a normal distribution are analyzed with Student's t-test, variables with a non-normal distribution with Mann-Whitney U, and proportions with the chi-square test. […]

[5] = daily administration of 15 µg 25(OH)D (Ingels et al. 2010)

| SMILES | 25OHD serum concentration as compared with placebo ([1]; 10-day period, IV replacement dose 15 µg 25OHD per day) | concentrations of 1,25(OH)2D ([1]; IV 200 µg loading dose, then 15 µg/day for 10 days) | increase in serum 25OHD after bolus ([1]; IV loading dose of 200 µg 25OHD) [ng/mL] | increase of 25OHD levels ([1]; daily supplement of 15 µg of 25OHD) | 25OHD serum concentrations ([1]; following the intravenous loading dose of 200 µg 25OHD, 20 ng/ml target) | increase of 25OHD levels in the subgroup receiving the active treatment ([1]; from 9.2 ng/ml baseline) [ng/mL] | catabolism of 25OHD in ICU patients versus normal subjects of the same age ([1]; human, in vivo) | Vd ([1]; human, in vivo, iv) [L] | level of 1,25(OH)2D3 [2, 5] | serum levels of 25OHD [2, 5] | increase of serum 25OHD per daily dose of 1 ug of 25OHD [3] [ng/mL] | safety endpoints (clinical outcome parameters) [4] | outcome of critically ill patients ([2]; oral, high dose, except subgroup with baseline severe vitamin D deficiency (lower hospital mortality)) |
| --- | --- | --- | --- | --- | --- | --- | --- | --- | --- | --- | --- | --- | --- |
| C=C1CC[C@H](O)C/C1=C/C=C1\CCC[C@]2(C)[C@@H]([C@H](C)CCCC(C)(C)O)CC[C@@H]12 [25OHD, 25-hydroxyvitamin D] | remained elevated throughout the 10-day period | only transiently increased | 11 | about 8 ng/ml | instantly rose but did not reach the 20 ng/ml target | 6.8 | at least 3 fold | ~18 | only a transient increase | increased the serum levels of 25OHD | 1.2 | positive effects | – |
| C=C1CC[C@H](O)C/C1=C/C=C1\CCC[C@]2(C)[C@@H]([C@H](C)CCCC(C)C)CC[C@@H]12 [vitamin D3] | – | – | – | – | – | – | – | – | – | – | – | – | did not affect outcome |

Source: patent EP3708171A1, “TREATMENT OF VITAMIN D DEFICIENCY WITH 25(OH) VITAMIN D IN CRITICALLY ILL PATIENTS” (Bouillon, Roger, priority 2019, dated 2020)
